Here are results for 3 compounds from publication PMC6362118, “Pharmacophore-guided discovery of CDC25 inhibitors causing cell cycle arrest and tumor regression” (Scientific Reports, 2019).

Where two headings read alike, the source gives them in different places.

In assay [1] the target is T1, CDC25A (Homo sapiens, UniProt P30304).
T1 construct: GST (pGEX vector) (N); made in house; host or cells: E. coli BL21
T1 sequence (P30304 1-524): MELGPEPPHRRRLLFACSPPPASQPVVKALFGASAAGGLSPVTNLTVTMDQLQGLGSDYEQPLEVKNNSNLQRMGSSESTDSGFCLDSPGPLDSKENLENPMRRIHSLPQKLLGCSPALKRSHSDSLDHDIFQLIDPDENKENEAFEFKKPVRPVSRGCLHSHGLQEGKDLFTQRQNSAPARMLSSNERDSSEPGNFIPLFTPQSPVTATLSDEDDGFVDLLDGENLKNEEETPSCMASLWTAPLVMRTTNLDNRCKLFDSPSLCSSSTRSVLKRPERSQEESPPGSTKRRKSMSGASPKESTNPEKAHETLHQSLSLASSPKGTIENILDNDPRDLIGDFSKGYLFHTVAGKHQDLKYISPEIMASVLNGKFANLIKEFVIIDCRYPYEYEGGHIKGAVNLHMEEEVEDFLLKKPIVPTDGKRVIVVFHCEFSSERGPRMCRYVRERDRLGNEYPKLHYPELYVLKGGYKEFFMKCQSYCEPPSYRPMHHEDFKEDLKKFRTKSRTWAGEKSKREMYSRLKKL
Nature of the assay: Enzymatic assay (OMFP substrate) on recombinant CDC25A. It counts as biochemical. The settings on record: for remaining activity at 20 µM: compound 20 µM, relative to DMSO control; for IC50: dose-response on recombinant CDC25A. As for the experimental part: 57 UPD compounds were dissolved in DMSO at 10 mM stock concentration and stored in
60 Expression and purification of CDC25 phosphatases - CDC25A (kind gift of I.
61 Hoffmann, Heidelberg, Germany), CDC25B and CDC25C (kind gift of B. Gabrielli,
62 Queensland, Australia) in pGEX were expressed in E. coli BL21 cells and purified on 1
63 ml Glutathione Sepharose 4 Fast Flow columns as described 1.
65 Enzymatic assays - CDC25A, CDC25B and CDC25C were appropriately diluted in 10
66 mM Tris-HCl pH 8.0, 50 mM NaCl and assayed in 20 mM Tris-HCl pH 8.0, 75 mM
67 NaCl, 0.5 mM EGTA, 1 mM DTT, 0.1 mg/ml BSA and defined concentrations of
68 compounds. Reactions were started by addition of the substrate OMFP (0.1 mM). Assays
69 were carried out at room temperature in duplicate or triplicate using transparent-bottom,
70 V-shaped 96 well plates and read at defined intervals on a Molecular Devices
71 SpectraMax microplate reader (ex: 490 nm / em: 525 nm). IC50 and kinetic parameters
72 calculated from Lineweaver-Burk double-reciprocal plots of the data were obtained using
73 GraphPad Prism software. […]

Assay [2] has as its system HeLa cells. Description: Flow cytometric analysis of cell cycle progression (DNA content) in HeLa cells. It counts as cell-based. Particulars: for progression through S-phase: HeLa, 10 µM added at release from double-thymidine block (early S-phase); for effect on cell cycle distribution (DNA content): asynchronous HeLa cells, 10 μM, 15 h; for effect on the G2/M transition: double-thymidine synchronized HeLa, 10 μM added 5 h upon release, analysed 12 h post-release. How it is done:
Reactions were started by addition of the substrate OMFP (0.1 mM). Assays 69 were carried out at room temperature in duplicate or triplicate using transparent-bottom, 70 V-shaped 96 well plates and read at defined intervals on a Molecular Devices 71 SpectraMax microplate reader (ex: 490 nm / em: 525 nm). IC50 and kinetic parameters 72 calculated from Lineweaver-Burk double-reciprocal plots of the data were obtained using 73 GraphPad Prism software. 74 75 Cell culture - Wild-type HeLa and Kyoto HeLa cells stably expressing mCherry-H2B 76 were maintained in DMEM+L-Glutamine (Gibco, Life Technologies, USA) 77 supplemented with 5% fetal calf serum (FCS) (Gibco) and penicillin-streptomycin (100 […] A549 and Colo741 were grown and maintained like HeLa 79 cells but with 10% FCS. HCT116 were maintained in McCoy's medium supplemented 80 with 10% FCS and penicillin-streptomycin. U2OS-Tet-OFF cells expressing HA-CDC25 81 were grown and maintained in DMEM+L-Glutamine, 10% Tet-free FCS and penicillin- 82 streptomycin in the presence or the absence of 4 μg/ml tetracycline (Sigma, T7660). 83 84 Cell synchronization - Cell synchronization was performed by double thymidine block- 85 release protocol 2 or nocodazole treatment 3 and verified by flow cytometry. 86 87 Cell viability assays - Compounds viability upon 48h treatment with the compounds was 88 assessed as described 4. Data were plotted with Prism 7® and analyzed by non-linear 89 regression. Comparison of single curve fitting to all data set within an experiment was 90 performed with the extra sum-of-squares F-test to determine P values. 91 92 Western blotting - Cell lysis and immunoblot analysis were performed as previously 93 described 5. […] Cells were washed with PBS, resuspended […] To 100 quantify phosphorylation of CDK1 at Tyr15 and H2AX at S139, cells were harvested and 101 examined as described 6. Samples were measured on an AttuneTM NxT Cytometer 102 (ThermoFisher Scientific, Carlsbad, CA, USA) and data were analyzed with FlowJo® 103 software v10 (FlowJo, LLC, Ashland, OR, USA). 104 105 Real Time qRT-PCR - Organoids were lysed in Tri-Reagent (Sigma) as previously 106 described 7 and total RNA was isolated as described by manufacturer's instructions. For […] 108 High Fidelity cDNA Synthesis kit (Roche). Real-time quantitative PCR reactions were 109 performed in three independent biological replicates, each with technical triplicate, using 110 the Applied Biosystems SYBR Green Kit and monitored by the ABI Prism 7900HT 111 system (Applied Biosystem). The following primers were used: 112 Lgr5: Forward [NT] and Reverse 5'- […] 114 Lysozyme: Forward [NT] and Reverse 5'- 115 [NT]3' 116 Cryptdin: Forward [NT] and Reverse 5'- 117 [NT]-binding protein (TBP): Forward [NT] and 119 Reverse [NT] 120 […] 122 amplification curves and the melting temperature analysis of the final amplification […] 4
On the technique in general: Flow cytometry measures light scatter and fluorescence of single cells or particles in a stream.

Assay [3] relates to HeLa cells. Nature of the assay: Cell viability assay on HeLa cells. It counts as cell-based. Particulars: Homo sapiens, 48h treatment. As for the experimental part: 75 Cell culture - Wild-type HeLa and Kyoto HeLa cells stably expressing mCherry-H2B
76 were maintained in DMEM+L-Glutamine (Gibco, Life Technologies, USA)
77 supplemented with 5% fetal calf serum (FCS) (Gibco) and penicillin-streptomycin (100
78 U/ml - 100 µg/ml) (Gibco). […]
87 Cell viability assays - Compounds viability upon 48h treatment with the compounds was
88 assessed as described 4. Data were plotted with Prism 7® and analyzed by non-linear
89 regression. Comparison of single curve fitting to all data set within an experiment was
90 performed with the extra sum-of-squares F-test to determine P values. […]

The mark [4] stands for this setting: read-out: % remaining activity ± SD (Table S1, first round of selection).

`O=C1C(c2ccc(O)cc2O)=CC(=O)c2c(O)cccc21` [UPD-176, 5-hydroxy-2-(2,4-dihydroxyphenyl)naphthalene-1,4-dione]: the remaining activity (usually the activity still measured, relative to the control) at 20 µM in assay [1] (setting [4]) was found to be 0%. Also, the “effect on the G1/S transition” value in assay [2] (HeLa synchronized at G2/M, 10 μM added in mid-G1, analysed 12 h post-release) was “effectively blocked cells in G1”. Besides, in assay [2], the “progression through S-phase” value is on record as “progression through S-phase was effectively held in check”, the “effect on cell cycle distribution (DNA content)” value is given as “accumulation of cells at G2/M” and the “effect on the G2/M transition” value was “accretion of the G2/M peak”. Further, it took 1.08 µM to reach half-maximal inhibition in assay [3] (IC50).

Take `COc1cccc(SC2=CC(=O)c3cccc(O)c3C2=O)c1` [UPD-795, 2-(3-methoxyphenylthio)-8-hydroxynaphthalene-1,4-dione]: the remaining activity at 20 µM in assay [1] (read-out: % remaining activity ± SD (Table S2, second round of selection)) worked out at 0%. The IC50 (as a rule, the point on the concentration scale where inhibition reaches its midpoint) in assay [1] was found to be 1.25 µM. The “mechanism of enzyme inhibition” value in assay [1] (kinetic analysis, mixed-model inhibition equation) is on record as “mixed mechanism of enzyme inhibition”. Besides, in assay [1] (mixed-model inhibition equation), the Ki (as a rule, the dissociation constant of the complex between target and ligand, obtained from inhibition or displacement) was found to be 1.18 ± 0.4 µM. In assay [2], the “progression through S-phase” value is given as “progression through S-phase was effectively held in check” and the “effect on cell cycle distribution (DNA content)” value was “increase of the G1 population”.

`O=C1C=C(c2ccc(O)cc2O)C(=O)c2c(O)cccc21` [UPD-140, 2-(2′,4′-dihydroxyphenyl)-8-hydroxy-1,4-naphthoquinone]: the remaining activity at 20 µM in assay [1] (setting [4]) was 0.1 ± 0.1%. Moreover, the values for the IC50 in assay [1] and in assay [3] were 1.42 µM and 1.2 µM, respectively. Moreover, in assay [2], the “effect on the G2/M transition” value is “accretion of the G2/M peak”.
